Patent publication US9987361B1, “Compositions and method for sustained drug delivery by active transdermal technology” (Noven Pharmaceuticals, Inc., priority 2014, dated 2018)

Legend:
[1] = system: microchannels in skin made by a microneedle device; experiment: In vivo transepidermal water loss (TEWL) after microneedle pretreatment; conditions: swine; DPG formulated with saturated compound, applied after microneedle pretreatment; FIG. 4
Protocol: Transepidermal water loss (TEWL) was assessed in vivo in swine as an indicator of skin integrity before and after microneedle pretreatment, using dipropylene glycol (DPG) formulated with saturated (i) cholesterol, (ii) curcumin, (iii) glycyrrhizin, (iv) diclofenac, or (v) no anti-healing compound. The diclofenac formulation was used as a positive control, and the formulation with no anti-healing compound was used as a negative control. Microneedle devices were inserted into swine skin with an applicator and removed, followed by application of the formulations. TEWL was measured before and after microneedle pretreatment, and during application of the formulations (formulations were removed and reapplied at every time point).
FIG. 4 illustrates the in vivo transepidermal water loss measured before and after microneedle pretreatment for the five formulations.

[2] = system: microchannels in skin made by a microneedle device; experiment: In vivo impedance after microneedle pretreatment; conditions: swine; DPG formulated with saturated compound, applied after microneedle pretreatment; FIG. 5
Protocol: Impedance (Z) was assessed in vivo in swine as a measure of skin integrity using the compositions described above. Microneedle devices were inserted into swine with an applicator and removed, followed by application of the formulations. Impedance was measured before and after microneedle pretreatment, and during application of the formulations (formulations were removed and reapplied at every time point).
FIG. 5 illustrates the in vivo impedance measured before and after microneedle pretreatment for the five formulations.

[3] = system: microchannels; conditions: reported in the literature; cited from earlier work

Compound	transepidermal water loss (TEWL), sustained level [1]	impedance (Z) [2]	lifetime of microchannels [3]
CC(C)CCC[C@@H](C)[C@H]1CC[C@H]2[C@@H]3CC=C4C[C@@H](O)CC[C@]4(C)[C@H]3CC[C@]12C [cholesterol]	higher sustained levels of TEWL than the formulation with no anti-healing compound	low impedance throughout the study	
CC1(C)[C@@H](O[C@H]2O[C@H](C(=O)O)[C@@H](O)[C@H](O)[C@H]2O[C@@H]2O[C@H](C(=O)O)[C@@H](O)[C@H](O)[C@H]2O)CC[C@]2(C)[C@H]3C(=O)C=C4[C@@H]5C[C@@](C)(C(=O)O)CC[C@]5(C)CC[C@@]4(C)[C@]3(C)CC[C@@H]12 [glycyrrhizin]	higher sustained levels of TEWL than the formulation with no anti-healing compound	low impedance throughout the study	
COc1cc(/C=C/C(=O)CC(=O)/C=C/c2ccc(O)c(OC)c2)ccc1O [curcumin]	higher sustained levels of TEWL than the formulation with no anti-healing compound	low impedance throughout the study	
O=C(O)Cc1ccccc1Nc1c(Cl)cccc1Cl [diclofenac, reference compound]	highest sustained level of TEWL	low impedance throughout the study	extend the lifetime of microchannels
